From PubChem BioAssay (NCI) come the findings set out here.

The structures appear in SMILES notation. Several values for one entry are separate records, joined by “and”; a condition that tells them apart may be missing. Identical values can stand only once.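 Interpolation was linear, between the two tested concentrations surrounding the appropriate level; five concentrations were tested over 48 hours in 96-well plates. GI50 marks 50% less growth. Definition used: TGI = concentration required for complete inhibition of growth.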 Where only a bound is given, the exact number is not on record here.

For the assay, the system named is MDA-MB-468 breast. The experiment in a line: NCI anticancer screen, dose series, 48 h.
Consider `CC/C(=N\Nc1nc2ccccc2n1C)c1ccccn1`, for which the GI50 was 0.0284 µM and the TGI came out at 0.207 µM.

Consider `CCc1nn2c(C)cc(C)nc2c1Cc1ccc(/C=C/CN2CCN(CCOCCOCCN3CCN(C/C=C/c4ccc(Cc5c(CC)nn6c(C)cc(C)nc56)cc4)CC3)CC2)cc1`, for which the GI50 is 1.79 µM and the TGI was determined as 3.81 µM.

As for `COc1cc(CNC(=O)/C=C/C=C/c2ccc3c(c2)OCO3)ccc1OCc1cn(-c2ccc(Cl)c(Cl)c2)nn1`, the GI50 was 0.788 µM and the TGI was determined as 2.46 µM.

In the case of `CN(C)CC(C(=O)c1ccccc1)c1ccccc1` (centres undefined), the GI50 was 0.95 µM and the TGI was 2.63 µM.

Take `O=C1NC(=NCC(CO)c2ccccc2)S/C1=C\c1ccc2ncccc2c1` (centres undefined): the GI50 is 8.8 µM and the TGI was greater than 25 µM.

Regarding `Oc1nc(NCCc2ccccc2)sc1/C=C1\C=Nc2ncccc21`, the GI50 is 1.51 µM and 2.05 µM; the TGI was 3.6 µM and 6.37 µM.

For `COc1cc2c(cc1OC)C(CCc1ccc(Cl)cc1)N(C)CC2` (centres undefined), the GI50 was 16.3 µM and the TGI worked out at 38.1 µM.

Take `O=C1Cc2cc(CCn3ccnc3)c(Cl)cc2N1`: the GI50 was 2.74 µM and the TGI amounted to 11.3 µM.

In the case of `Cc1cccc(CN(C)c2ccc(CO)c(Cl)c2)c1`, the GI50 is 0.0572 µM and the TGI was determined as 0.176 µM.

Turning to `O=C1NC(=NCc2cccs2)SC1Cc1ccc2ncccc2c1` (centres undefined), the GI50 was 11.8 µM and the TGI was greater than 25 µM.

`O=C(CCCn1c2c(sc3ncccc32)c(=O)n2nnc(-c3ccccc3)c12)NCCc1cnc[nH]1`: the GI50 was 8.06 µM and the TGI came out at 27.4 µM.

`CCNC(=O)Oc1ccc(/C(=C(/C)c2ccccc2)c2ccc(OCCN3CCCCCC3)cc2)cc1`: the GI50 was 2.06 µM and the TGI worked out at 5.63 µM.

As to `N/C(=N\O)c1ncc(-c2ccc(C(F)(F)F)cc2)c(NC2CCCCCC2)n1`, the GI50 is 8.27 µM and 3.63 µM; the TGI was determined as 17.9 µM.

As to `Fc1ccc(-c2nc(-c3nc4ccc(Cl)cc4[nH]3)cc3c2[nH]c2ccccc23)cc1`, the GI50 was 2.43 µM and the TGI is 11.5 µM.

For `C=CCN1C(=O)/C(=c2\sc3n(c2=O)C2C(NN=3)N(CC)C(=O)N2CC)c2ccccc21` (centres undefined), the GI50 was 0.293 µM and the TGI was found to be 3.75 µM.

As to `C=C1CC[C@@H]2C(C)(C)[C@@H](O)CC[C@@]2(C)[C@@H]1COc1ccc2ccc(=O)oc2c1`, the GI50 is 6.36 µM and the TGI stood at 25.9 µM.

Turning to `Cn1cc(-c2csc(-c3c[nH]c4ncccc34)n2)c2cc(Br)cnc21`, the GI50 is 0.812 µM and the TGI came out at 56.7 µM.

On to `Nc1nc(N)c2cc(CNc3ccc(Cl)c(Cl)c3)ccc2n1`, for which the GI50 was 0.903 µM and the TGI is 2.19 µM.

On to `O=C(Nc1cccc(Cl)c1)Nc1cccc(Cl)c1`, for which the GI50 was 0.0456 µM and the TGI was determined as 43.6 µM.

`CCCc1cc(=O)oc2c(C(=O)CC(C)C)c(O)c(CC=C(C)C)c(O)c12`: the GI50 was 3.72 µM and the TGI turned out to be 27 µM.

Regarding `CCN1CCN(CCOc2ccc(CNc3ccc4nc(CCC5CCCCC5)[nH]c4c3)cc2)CC1`, the GI50 was 1.67 µM and the TGI came to 4.11 µM.

`CSc1ccc2c(c1)c(CCN)c(C)n2Cc1ccc(Cl)c(Cl)c1`: the GI50 was 1.78 µM and the TGI is 3.47 µM.

With `CCCCCCN(CCCCCC)CCCNc1nccc2ccccc12`, the GI50 is 1.34 µM and the TGI came out at 2.91 µM.

For the compound `C=C1C(=O)O[C@@H]2C[C@@H](C)/C=C\C(=O)[C@](C)(OC(C)=O)C[C@H](OC(=O)/C(C)=C\C)[C@@H]12`, the GI50 is 1.01 µM and the TGI stood at 5.08 µM.

Regarding `O=S(=O)(NCCNc1nccc(-c2c(-c3cccc(O)c3)nc3sccn23)n1)c1ccc(F)cc1`, the GI50 was 2.62 µM and the TGI turned out to be 24.2 µM.

Turning to `COC(=O)[C@]12CC[C@@H](C)[C@H](C)[C@@H]1C1=CC[C@@H]3[C@@]4(C)C[C@@H](OC(=O)c5ccco5)[C@H](O)[C@@](C)(CO)[C@@H]4[C@H](O)C[C@@]3(C)[C@]1(C)CC2`, the GI50 is 2.34 µM and the TGI was 6.54 µM.

As to `COc1cc(/C=C/C(=O)C(=Cc2ccc(F)c(F)c2)C(=O)/C=C/c2ccc(O)c(OC)c2)ccc1O`, the GI50 was 1.7 µM and the TGI stood at 3.47 µM.

Take `COc1ccc(CN2c3ccccc3Sc3ccccc32)cc1F`: the GI50 was 0.309 µM and the TGI was 53.4 µM.

For `N#Cc1ccc(Oc2nccc(-c3c(-c4ccc(F)cc4)ncn3C3CCNCC3)n2)cc1`, the GI50 was 5.91 µM and the TGI was greater than 25 µM.

Consider `CCN1CCC[C@H]1c1cc(O)c2c(c1OC)C[C@H]1C[C@H]3[C@H](N)C(=O)C(C(N)=O)=C(O)[C@@]3(O)C(=O)C1=C2O`, for which the GI50 was 0.0446 µM and the TGI was 0.717 µM.

Turning to `CCCNc1nc(N(C)O)nc(N(C)O)n1`, the GI50 is 2.75 µM and the TGI was greater than 70.7 µM.

Turning to `c1cncc(CNc2ccccc2-c2nnc(Nc3ccc4c(c3)OCO4)o2)c1`, the GI50 was 0.153 µM and the TGI is greater than 100 µM.

As to `CC(C)=CC/C=C(/C)[C@H]1CC[C@]2(C)[C@@H]1CC[C@@H]1[C@@]3(C)CCC(=O)NC(C)(C)[C@@H]3CC[C@]12C`, the GI50 was 16.5 µM and the TGI is 34.2 µM.

Take `Cc1ccc(/C=C(\C#N)n2nnc3cc(Cl)c(Cl)cc32)cc1`: the GI50 was 2.4 µM and the TGI was 6.65 µM.

Take `CCOc1ccc(Cc2nccc3cc(OCC)c(OCC)cc23)cc1OCC`: the GI50 was 2.29 µM and the TGI was found to be 18.3 µM.

With `O=C1C2=C(C(=O)c3c(O)ccc(O)c31)N(c1ccc(N3CCOCC3)nc1)Cc1ccccc1O2`, the GI50 was 0.217 µM and the TGI was determined as 0.516 µM.

Turning to `O=C(N[C@H](c1ccc(Cl)c(Cl)c1)C1CNC1)c1ccc2cnccc2c1`, the GI50 was 1.85 µM and the TGI came out at 10.4 µM.
